US20260078089A1, “BIOACTIVE PHYTOCHEMICALS IN ZIZYPHUS AND GUARANA” (Phytoquest Limited, priority 2018, published 2026)

Assays:
Format in all cases: biochemical
glucosidases = experiment: Glycosidase panel, glucosidases overall; conditions: panel of glucosidases
Experimental: Glycosidase assays were conducted on Compounds 1 and 3 and an extract of Zizyphus used in the disaccharide loading mouse studies to determine if glucosidase inhibition might explain the effects on blood glucose. A panel of glycosidases were used to be sure any activity found was a selective inhibition and not just non-specific binding to the enzyme.
Glycosidase assays were conducted as described by Watson et al. (Phytochemistry 1997, 46, 255) using p-nitrophenyl-substrates (except sialidase which used methylumbeliferyl-N-acetyineuraminic acid as substrate). Assays were carried out in microtitre plates. Enzymes were assayed in 0.1 M citric acid/0.2 M di-sodium hydrogen phosphate (McIlvaine) buffers at the optimum pH for the enzyme. All assays were carried out at 20° C. All enzymes and substrates were purchased from Sigma Aldrich Chemicals Limited. The incubation mixture consisted of 10 μl of enzyme solution, 10 μl of the iminosugars solution and 50 μl of the appropriate 5 mM p-nitrophenyl substrate made up in McIlvaine buffer at the optimum pH for the enzyme. The reactions were stopped with 0.4 M glycine (pH 10.4) during the exponential phase of the reaction. Absorbances were read at 405 nm. Water was substituted for the alkaloids in the blanks. Reactions were carried out in triplicate. […]

α-D-glucosidase [1] = molecular target: T1, α-D-glucosidase (Saccharomyces cerevisiae, UniProt P53341); experiment: Glycosidase assay, p-nitrophenyl substrate; conditions: Saccharomyces cerevisiae enzyme; screened at 0.14 mg mL−1 (footnote: 0.4 mM); 20° C
T1 construct: purchased Sigma Aldrich Chemicals Limited
T1 sequence (P53341 whole entry): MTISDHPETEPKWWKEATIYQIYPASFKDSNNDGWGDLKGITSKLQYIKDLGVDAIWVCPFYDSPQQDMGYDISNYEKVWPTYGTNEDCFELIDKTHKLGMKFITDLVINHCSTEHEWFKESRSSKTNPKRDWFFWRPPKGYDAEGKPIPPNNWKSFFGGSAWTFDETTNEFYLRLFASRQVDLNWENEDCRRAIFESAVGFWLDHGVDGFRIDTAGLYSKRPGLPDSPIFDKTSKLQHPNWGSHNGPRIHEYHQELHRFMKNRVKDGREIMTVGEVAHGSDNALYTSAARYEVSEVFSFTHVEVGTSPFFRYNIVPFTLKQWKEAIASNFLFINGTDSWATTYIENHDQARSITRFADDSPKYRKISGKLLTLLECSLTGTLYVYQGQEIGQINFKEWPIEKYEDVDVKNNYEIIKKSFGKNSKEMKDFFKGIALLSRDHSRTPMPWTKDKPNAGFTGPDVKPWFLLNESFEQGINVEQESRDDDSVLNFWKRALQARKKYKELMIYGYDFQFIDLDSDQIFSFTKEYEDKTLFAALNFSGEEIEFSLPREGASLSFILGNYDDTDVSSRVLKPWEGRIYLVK
Experimental: (§1) Glycosidase assays were conducted as described by Watson et al. (Phytochemistry 1997, 46, 255) using p-nitrophenyl-substrates (except sialidase which used methylumbeliferyl-N-acetyineuraminic acid as substrate). Assays were carried out in microtitre plates. Enzymes were assayed in 0.1 M citric acid/0.2 M di-sodium hydrogen phosphate (McIlvaine) buffers at the optimum pH for the enzyme. All assays were carried out at 20° C. All enzymes and substrates were purchased from Sigma Aldrich Chemicals Limited. The incubation mixture consisted of 10 μl of enzyme solution, 10 μl of the iminosugars solution and 50 μl of the appropriate 5 mM p-nitrophenyl substrate made up in McIlvaine buffer at the optimum pH for the enzyme. The reactions were stopped with 0.4 M glycine (pH 10.4) during the exponential phase of the reaction. Absorbances were read at 405 nm. Water was substituted for the alkaloids in the blanks. Reactions were carried out in triplicate.
(§2) Enzyme inhibitor solutions—Compounds were dissolved in distilled water at a concentration of 1 mg mL^−1 and then screened at a concentration of 0.14 mg mL^−1 after dilution of the 1 mg mL^−1 in the assay volumes of substrates.

β-D-glucosidase = experiment: Glycosidase assay, p-nitrophenyl substrate; conditions: Almond enzyme; screened at 0.14 mg mL−1 (footnote: 0.4 mM)
Experimental: as §1, §2

[2] = molecular target: T2, N-acetyl-β-D-hexosaminidase (Aspergillus oryzae, UniProt Q8J2T0); experiment: Glycosidase assay, p-nitrophenyl substrate; conditions: Aspergillus oryzae enzyme; screened at 0.14 mg mL−1 (footnote: 0.4 mM)
T2 construct: purchased Sigma Aldrich Chemicals Limited
T2 sequence (Q8J2T0 97-600): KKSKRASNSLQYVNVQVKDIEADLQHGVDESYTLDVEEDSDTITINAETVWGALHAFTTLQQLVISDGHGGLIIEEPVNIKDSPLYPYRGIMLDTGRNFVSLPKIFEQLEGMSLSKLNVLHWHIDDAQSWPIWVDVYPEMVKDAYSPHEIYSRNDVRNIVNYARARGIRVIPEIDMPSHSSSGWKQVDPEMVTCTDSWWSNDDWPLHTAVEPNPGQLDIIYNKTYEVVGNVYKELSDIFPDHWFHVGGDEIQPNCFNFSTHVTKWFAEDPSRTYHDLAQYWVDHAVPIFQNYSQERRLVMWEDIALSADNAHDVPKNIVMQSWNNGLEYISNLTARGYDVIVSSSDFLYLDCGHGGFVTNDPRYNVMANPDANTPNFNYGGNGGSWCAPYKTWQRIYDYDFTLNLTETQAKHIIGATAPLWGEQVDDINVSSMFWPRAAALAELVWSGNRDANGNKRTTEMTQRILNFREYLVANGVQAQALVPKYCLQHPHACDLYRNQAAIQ
Experimental: as §1, §2

Naringinase = experiment: Glycosidase assay, p-nitrophenyl substrate; conditions: Penicillium decumbens enzyme; screened at 0.14 mg mL−1 (footnote: 0.4 mM)
Experimental: as §1, §2

β-D-mannosidase = experiment: Glycosidase assay, p-nitrophenyl substrate; conditions: Cellullomonas fimi enzyme; screened at 0.14 mg mL−1 (footnote: 0.4 mM)
Experimental: as §1, §2

α-D-glucosidase [3] = experiment: Glycosidase assay, p-nitrophenyl substrate; conditions: Bacillus sterothermphilus enzyme; screened at 0.14 mg mL−1 (footnote: 0.4 mM)
Experimental: as §1, §2

α-L-fucosidase = molecular target: T3, α-L-fucosidase (Bos taurus, UniProt Q2KIM0); experiment: Glycosidase assay, p-nitrophenyl substrate; conditions: Bovine kidney enzyme; screened at 0.14 mg mL−1 (footnote: 0.4 mM)
T3 construct: purchased Sigma Aldrich Chemicals Limited
T3 sequence (Q2KIM0 23-468): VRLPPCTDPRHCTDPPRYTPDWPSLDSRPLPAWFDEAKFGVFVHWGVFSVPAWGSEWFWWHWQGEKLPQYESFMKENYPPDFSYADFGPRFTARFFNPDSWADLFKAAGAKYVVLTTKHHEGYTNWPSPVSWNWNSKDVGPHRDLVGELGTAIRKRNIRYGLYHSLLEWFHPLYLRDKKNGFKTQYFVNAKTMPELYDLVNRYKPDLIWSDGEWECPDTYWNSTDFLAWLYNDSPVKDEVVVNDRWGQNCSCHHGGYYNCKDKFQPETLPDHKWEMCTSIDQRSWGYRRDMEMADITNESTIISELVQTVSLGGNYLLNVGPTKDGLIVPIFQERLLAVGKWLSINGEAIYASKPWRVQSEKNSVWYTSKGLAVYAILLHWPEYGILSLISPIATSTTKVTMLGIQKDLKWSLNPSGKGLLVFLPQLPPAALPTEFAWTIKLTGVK
Experimental: as §1, §2

OC[C@H]1N[C@H](CO)[C@@H](O)[C@@H]1O [DMDP]
glucosidase inhibition (in words) (glucosidases): expected strong inhibition of various glucosidases | % inhibition (α-D-glucosidase [1]): 97.37% | % inhibition (β-D-glucosidase): 96.61% | % inhibition [2]: 5.62% | % inhibition (Naringinase): 2.97% | % inhibition (β-D-mannosidase): 93.34% | % inhibition (α-D-glucosidase [3]): 92.98% | % inhibition (α-L-fucosidase): 4.84%
